Source: the NIST ThermoML archive (doi:10.1021/je900511c)

Details: Liquid, Closed cell (Static) method

CCO[Si](C)(Cl)Cl [dichloroethoxymethylsilane]
Details	vapor or sublimation pressure [kPa]
312.94 K	11.32
318.43 K	14.32
323.01 K	17.32
326.93 K	20.32
330.24 K	23.32
333.29 K	26.32
336.2 K	29.32
338.84 K	32.33
341.28 K	35.33
343.57 K	38.33
345.66 K	41.33
347.54 K	44.33
349.48 K	47.33
351.36 K	50.33
353.04 K	53.33
354.72 K	56.33
356.25 K	59.33
357.82 K	62.33
359.25 K	65.33
360.57 K	68.33
361.95 K	71.33
363.22 K	74.33
364.59 K	77.33
365.87 K	80.33
366.98 K	83.33
368.21 K	86.33
369.38 K	89.33
370.5 K	92.33
371.51 K	95.33
372.58 K	98.33
373.6 K	101.27
